Results on 3 molecules are retold here after patent US8614313B2, “Pharmaceutical compositions comprising forms of 5-azacytidine” (Pharmion LLC, priority 2003, dated 2013).

Common to all, as to type: physicochemical
Data set [1] can be described thus: Polymorphic form conversion: Form I slurried in various solvents, recovered solid analyzed using XRPD. The text has this: (§1) X-ray powder diffraction patterns for each sample were obtained on a Scintag XDS 2000 or a Scintag X2 θ/θ diffractometer operating with copper radiation at 45 kV and 40 mA using a Kevex Psi Peltier-cooled silicon detector or a Thermo ARL Peltier-cooled solid state detector. Source slits of 2 or 4 mm and detector slits of 0.5 or 0.3 mm were used for data collection. Recrystallized material was gently milled using an agate mortar and pestle for approximately one minute. Samples were placed in a stainless steel or silicon sample holder and leveled using a glass microscope slide. Powder diffraction patterns of the samples were obtained from 2 to 42° 2θ at 1°/minute. Calibration of the X2 diffractometer is verified annually using a silicon powder standard.
Form I of 5-azacytidine was added to various solvents in sufficient quantities to form a slurry, and the slurry allowed to equilibrate for a period of time. The solid material that was present in the slurry was recovered, dried, and analyzed using XRPD (according to the XRPD protocol included in Example 5) with the aim of detecting new polymorphs and pseudopolymorphs during the transition to the dissolved state.

The nature of data set [2]: Polymorphic form conversion of other forms slurried in water, solid analyzed using XRPD. To be noted: approximate 25 mg/mL, equilibrated 15 minutes.
Description: as §1

Data set [3] is described as follows: Dehydration of Form III by heating; TGA water content and XRPD.
Description: as §1
Thermogravimetric Analysis (TGA) measurements for each sample were collected using a Perkin Elmer TGA 7 purged with nitrogen at approximately 20 cc/minute. A 100-mg standard weight and nickel metal were used to verify balance and temperature calibrations, respectively. Samples were heated from 25° C. to 250° C. or 300° C. at 10° C./minute.
5-azacytidine Form III was heated at 105° C. for 4 hours in an attempt to dehydrate the material. […] TGA was used to measure the water content of Form III before and after drying.

For the molecule `Nc1ncn([C@@H]2O[C@H](CO)[C@@H](O)[C@H]2O)c(=O)n1` [Form I, 5-azacytidine], the “XRPD Pattern Assignment” value is “Form III” in data set [1] (slurry equilibrated 19 hours in 5% Dextrose); “Form III” in data set [1] (slurry equilibrated 19 hours in 5% Tween 80); “Form III” in data set [1] (slurry equilibrated 19 hours in 50/50 EtOH/DI Water); “Form I” in data set [1] (slurry equilibrated 19 hours in Acetone); “Form III” in data set [1] (slurry equilibrated 19 hours in DI Water); “Amorphous” in data set [1] (slurry equilibrated 19 hours in DMSO). Also, the “XRPD Pattern Assignment” value in data set [1] (slurry equilibrated 19 hours in Ethyl alcohol) is “Form I”; in data set [1] (slurry equilibrated 19 hours in Methyl ethyl ketone), “Form I”; in data set [1] (slurry equilibrated 19 hours in Normal Saline), “Form III”; in data set [1] (slurry equilibrated 19 hours in Polyethylene glycol), “Amorphous”; in data set [1] (slurry equilibrated 19 hours in Propylene glycol) it was “Amorphous”; in data set [1] (slurry equilibrated 19 hours in Water-saturated Octanol) it was “Form III”.
Consider `Nc1ncn([C@@H]2O[C@H](CO)[C@@H](O)[C@H]2O)c(=O)n1` [Form I/II mixed phase, 5-azacytidine], for which the “form observed by XRPD after slurry in water” value in data set [2] is “Form III”.
On to `Nc1ncn([C@@H]2O[C@H](CO)[C@@H](O)[C@H]2O)c(=O)n1` [Form III, 5-azacytidine], for which the “amount of moisture (TGA)” value in data set [3] (after drying at 105° C. for 4 hours) is reported as < 0.1%; in data set [3] (initial, before drying) it was 6.31%. Also, the “XRPD powder pattern after dehydration” value in data set [3] (heated at 105° C. for 4 hours) is “matches that of Form I”.
